Experiment: Stain removal from calcium deficient hydroxyapatite disks (human tooth model), tea stain
Method: Tea staining Solution: 200 mL of high-purity deionized (HPDI) water was heated to boiling in a 500-mL beaker. The beaker was removed from heat and 4 Lipton™ tea bags were added. The tea bags were allowed to soak for 5 minutes. The tea bags were pressed with a spatμLa upon removal to remove liquid.
Tea staining Procedure: A calcium-deficient hydroxyapatite (HAP) disk (Clarkson Chromatography Products) was placed into a 50-mL centrifuge tube with 10 mL of tea solution. The centrifuge tube was gently shaken by hand for 15 minutes. The tea solution was decanted and replaced with 10 mL of HPDI water and vortexed for 30 seconds. The water was decanted and replaced with 10 additional mL of HPDI water and vortexed for 30 seconds. The disk was removed with forceps and patted dry with a tissue. The disk was allowed to air dry at room temperature for at least one hour.
Oxidation resistant chelating buffer: 0.25M 1-Hydroxyethylidenediphosphonic acid (etridonic acid) (Dequest® 2010, Thermphos) (HEPA) was pH adjusted by microtitration with 10N NaOH. 1.28 g of 1-Hydroxyethylidenediphosphonic acid was to a 25-mL volumetric flask and brought to volume with HPDI water. The solution was transferred to a 50-mL beaker with a stir bar and pH adjusted using 10.04N NaOH, monitored with a calibrated pH meter. Aliquat 336® (Cognis) (also suitable is Aliquat 134®) (N-methyl-tri-(n-octyl)ammonium chloride), (N-methyl TOA) or “HEPA” chelating pH Buffer: 2.5-μL of N-methyl TOA was added to 5 mL of pH 7 HEPA buffer and sonicated for 1 minute. pH 7 Sodium Dodecyl Sulfate (SDS)/HEPA Buffer: 10 mg of SDS was added to 5 mL of pH 7 HEPA buffer and sonicated for 1 minute. pH 8 SDS/HEPA Buffer: 10 mg of SDS was added to 5 mL of pH 8 HEPA buffer and sonicated for 1 minute.
• A. A tea stained disk was placed into the bowl of the bowl of a watch glass and 100 μL of pH 7 HEPA buffer was pipetted onto the disk surface. 3.7 mg of potassium ferrate(VI) was added to the disk surface and mixed gently. […] The disk was rinsed at 10 minutes with HPDI water. […] 1 mL of pH 7 HEPA buffer was added followed by 9 mL of HPDI water. 9.7 mg of potassium ferrate(VI) was added. The tube was gently hand shaken for 10 minutes. The disk was removed and rinsed with HPDI water. […] 10 mg of potassium ferrate(VI) was added to 1 mL of pH 7 HEPA buffer in a 50 mL centrifuge tube. 9 mL HPDI water was added, and the solution was shaken for a few seconds followed by the addition of a tea stained HAP disk. The disk was removed at 10 minutes and rinsed with HPDI water. […] 1.3 mg of potassium ferrate(VI) added and mixed into the solution.

[1] = disk A-2: 30 mg calcium carbonate + 250 μL HPDI water, 10 mg, no chelating buffer, rinsed at 5 minutes
[2] = disk A: 100 μL pH 7 HEPA buffer, 3.7 mg added to disk surface, rinsed at 10 minutes
[3] = disk B-1: 10 mg calcium carbonate + 12 mg in 2 mL pH 8 SDS/HEPA buffer, 5 minutes, then 1 mL buffer 45 minutes
[4] = disk B: 1 mL pH 7 HEPA buffer + 9 mL water, 9.7 mg, shaken 10 minutes
[5] = disk E: 100 μL pH 7 HEPA buffer, 1.4 mg, 5 minutes, then 100 μL pH 7 HEPA buffer 5 minutes
[6] = disk F: 100 μL pH 7 HEPA buffer + one drop of N-methyl TOA (emulsion), 1 mg
[7] = disk G: 100 μL N-methyl TOA/HEPA buffer, 0.7 mg, rinsed at 5 minutes, then 100 μL buffer 5 minutes
[8] = disk H: 100 μL N-methyl TOA/HEPA buffer, 1.3 mg, 5 minutes, then 2 x 100 μL buffer 5 minutes each
[9] = disk I: 100 μL N-methyl TOA/HEPA buffer, 1.3 mg (uneven distribution), 5 minutes, then 200 μL buffer
[10] = disk J: 200 μL N-methyl TOA/HEPA buffer, 2.3 mg, 5 minutes, then 200 μL buffer 5 minutes
[11] = disk K: 9.9 mg premixed in 1 mL N-methyl TOA/HEPA buffer, disk fully covered 10 minutes, then 400 μL buffer 45 minutes
[12] = disk L: 100 μL pH 7 SDS/HEPA buffer, 1.3 mg, 10 minutes, then 100 μL buffer ten minutes
[13] = disk M: 1 mL of 29.3 mg in 3 mL pH 7 SDS/HEPA buffer, 3 minutes, then buffer soaks 8 and 35 minutes, extra rinse
[14] = disk N: 1 mL of 29.3 mg in 3 mL pH 7 SDS/HEPA buffer, 3 minutes, then buffer soaks 8 and 35 minutes, extra rinse
[15] = disk P: overnight tea stain, 0.75 mL of 25 mg in 1.5 mL pH 8 SDS/HEPA buffer, 5 minutes, then 1 mL buffer 45 minutes, rinsed again after drying one hour
[16] = disk Q: overnight tea stain, 0.75 mL of 25 mg in 1.5 mL pH 8 SDS/HEPA buffer, 5 minutes, then 1 mL buffer 45 minutes
[17] = disk S: tea stained disk treated the same way as P and Q (replicate)
[18] = disk U: treated the same way as P and Q, then submerged in HPDI water 45 minutes instead of drying

Substance: potassium ferrate(VI)
- L* (lightness/darkness) [1]: 69.5
- a* (blue/red) [1]: 14.4
- appearance of disk after treatment [1]: the color was not removed
- b* (yellow/green) [1]: 26
- reflectance of visible light at 450 nm [1]: 22.036
- reflectance of visible light at 750 nm [1]: 64.152
- ΔE (versus tea stain) [1]: 29.21
- L* (lightness/darkness) [2]: 72
- a* (blue/red) [2]: 2.6
- appearance of disk after treatment [2]: stained purple with rust stains
- b* (yellow/green) [2]: −1.1
- reflectance of visible light at 450 nm [2]: 44.547
- reflectance of visible light at 750 nm [2]: 61.521
- ΔE (versus tea stain) [2]: 13.57
- L* (lightness/darkness) [3]: 100.8
- a* (blue/red) [3]: 0.5
- appearance of disk after treatment [3]: All stains were removed
- b* (yellow/green) [3]: 0.1
- reflectance of visible light at 450 nm [3]: 100.124
- reflectance of visible light at 750 nm [3]: 103.677
- ΔE (versus B-2, tea stained) [3]: 15.29
- L* (lightness/darkness) [4]: 79.1
- a* (blue/red) [4]: 1.6
- appearance of disk after treatment [4]: stained purple with rust stains
- b* (yellow/green) [4]: −2
- reflectance of visible light at 450 nm [4]: 57.457
- reflectance of visible light at 750 nm [4]: 69.889
- ΔE (versus tea stain) [4]: 8.29
- appearance of disk after treatment (disk C: 10 mg premixed in 1 mL pH 7 HEPA buffer + 9 mL water, disk removed at 10 minutes): stained purple
- L* (lightness/darkness) [5]: 90.1
- a* (blue/red) [5]: 1.3
- appearance of disk after treatment [5]: lighter purple than previous examples
- b* (yellow/green) [5]: −2.2
- reflectance of visible light at 450 nm [5]: 77.562
- reflectance of visible light at 750 nm [5]: 87.011
- ΔE (versus unstained disk) [5]: 4.24
- L* (lightness/darkness) [6]: 77
- a* (blue/red) [6]: 2.1
- appearance of disk after treatment [6]: purple with streaks where mixing occurred
- b* (yellow/green) [6]: 0.7
- reflectance of visible light at 450 nm [6]: 44.547
- reflectance of visible light at 750 nm [6]: 68.873
- ΔE (versus tea stain) [6]: 8.65
- L* (lightness/darkness) [7]: 94
- a* (blue/red) [7]: 0.6
- appearance of disk after treatment [7]: purple color was removed but brown staining observed
- b* (yellow/green) [7]: −0.1
- reflectance of visible light at 450 nm [7]: 82.923
- reflectance of visible light at 750 nm [7]: 92.128
- ΔE (versus tea stain) [7]: 10.88
- L* (lightness/darkness) [8]: 93.6
- a* (blue/red) [8]: 1.3
- appearance of disk after treatment [8]: light brown color
- b* (yellow/green) [8]: 0.6
- reflectance of visible light at 450 nm [8]: 82.479
- reflectance of visible light at 750 nm [8]: 93.202
- ΔE (versus tea stain) [8]: 10.06
- L* (lightness/darkness) [9]: 91.2
- a* (blue/red) [9]: −0.8
- appearance of disk after treatment [9]: More decoloring was observed at the center
- b* (yellow/green) [9]: −4.7
- reflectance of visible light at 450 nm [9]: 83.889
- reflectance of visible light at 750 nm [9]: 83.121
- ΔE (versus tea stain) [9]: 11.69
- L* (lightness/darkness) [10]: 87.5
- a* (blue/red) [10]: −0.1
- appearance of disk after treatment [10]: Rust spots observed
- b* (yellow/green) [10]: −3.9
- reflectance of visible light at 450 nm [10]: 44.547
- reflectance of visible light at 750 nm [10]: 78.071
- ΔE (versus tea stain) [10]: 9.10
- L* (lightness/darkness) [11]: 100.8
- a* (blue/red) [11]: −0.3
- appearance of disk after treatment [11]: Significant color removal was observed
- b* (yellow/green) [11]: −2.1
- reflectance of visible light at 450 nm [11]: 102.827
- reflectance of visible light at 750 nm [11]: 103.311
- ΔE (versus tea stain) [11]: 17.77
- L* (lightness/darkness) [12]: 99.1
- a* (blue/red) [12]: −0.4
- appearance of disk after treatment [12]: Most of the color was removed from the center of the disk
- b* (yellow/green) [12]: −2.2
- reflectance of visible light at 450 nm [12]: 99.384
- reflectance of visible light at 750 nm [12]: 98.847
- ΔE (versus tea stain) [12]: 16.32
- L* (lightness/darkness) [13]: 100.1
- a* (blue/red) [13]: 0
- b* (yellow/green) [13]: −1.9
- reflectance of visible light at 450 nm [13]: 100.820
- reflectance of visible light at 750 nm [13]: 102.480
- ΔE (versus disk 0) [13]: 12.15
- L* (lightness/darkness) [14]: 100.6
- a* (blue/red) [14]: −0.3
- b* (yellow/green) [14]: −1.4
- reflectance of visible light at 450 nm [14]: 101.538
- reflectance of visible light at 750 nm [14]: 101.930
- ΔE (versus disk O) [14]: 12.63
- L* (lightness/darkness) [15]: 103.5
- a* (blue/red) [15]: −2.1
- b* (yellow/green) [15]: −3.2
- reflectance of visible light at 450 nm [15]: 111.059
- reflectance of visible light at 750 nm [15]: 103.081
- ΔE (versus disk R) [15]: 25.40
- L* (lightness/darkness) [16]: 101.8
- a* (blue/red) [16]: −1.2
- b* (yellow/green) [16]: −0.7
- reflectance of visible light at 450 nm [16]: 103.784
- reflectance of visible light at 750 nm [16]: 101.164
- ΔE (versus disk R) [16]: 22.83
- L* (lightness/darkness) [17]: 99.3
- a* (blue/red) [17]: 0
- reflectance of visible light at 450 nm [17]: 98.555
- reflectance of visible light at 750 nm [17]: 98.659
- L* (lightness/darkness) [18]: 96.9
- a* (blue/red) [18]: 0.4
- appearance of disk after treatment [18]: Color was removed as effectively as with a dried sample
- b* (yellow/green) [18]: 0.3
- reflectance of visible light at 450 nm [18]: 89.892
- reflectance of visible light at 750 nm [18]: 94.030
- ΔE (versus tea stain) [18]: 13.44

Reference: US8663607B2, “Ferrate(VI)-containing compositions and methods of using ferrate(VI)” (Battelle Memorial Institute, priority 2007, dated 2014)
